Positions of bridges follow the written chain, without caps; N, C: chain ends. Non-standard residues stand in square brackets, D forms with d. Residues, ends and D or L forms follow the SMILES beside them. *: point of attachment. Ileψ(thiazoline)Cys = CC[C@H](C)[C@H](N)C1=N[C@H](C(=O)*)CS1; dOrn = NCCC[C@@H](N)C(=O)O
Test system: Culture A80509
Assay: resistance of culture A80509 to antibiotics, sensitivity discs on agar

## CC[C@H](C)[C@H](N)C1=N[C@H](C(=O)N[C@@H](CC(C)C)C(=O)N[C@H](CCC(=O)O)C(=O)N[C@H](C(=O)N[C@H]2CCCCNC(=O)[C@H](CC(N)=O)NC(=O)[C@@H](CC(=O)O)NC(=O)[C@H](Cc3cnc[nH]3)NC(=O)[C@@H](Cc3ccccc3)NC(=O)[C@H]([C@@H](C)CC)NC(=O)[C@@H](CCCN)NC2=O)[C@@H](C)CC)CS1 [bacitracin] ({Ileψ(thiazoline)Cys}-L[dE]IK[dOrn]I[dF]H[dD]N; lactam 4-C)
Disc 10 units
  resistance/sensitivity of culture A80509: sensitive

## CCC[C@@H]1C[C@@H](C(=O)N[C@@H]([C@H]2O[C@H](SC)[C@H](O)[C@@H](O)[C@H]2O)[C@@H](C)O)N(C)C1 [lincomycin]
Disc 2 μg
  resistance/sensitivity of culture A80509: resistant

## CO[C@H]1C[C@H](O[C@H]2[C@H](C)[C@@H](O[C@@H]3O[C@H](C)C[C@H](N(C)C)[C@H]3O)[C@@H](C)C[C@@]3(CO3)C(=O)[C@H](C)[C@@H](O)[C@@H](C)[C@@H](C)OC(=O)[C@@H]2C)O[C@@H](C)[C@@H]1O [oleandomycin]
Disc 15 μg
  resistance/sensitivity of culture A80509: resistant

## CO[C@H]1/C=C/O[C@@]2(C)Oc3c(C)c(O)c4c(O)c(c(/C=N/N5CCN(C)CC5)c(O)c4c3C2=O)NC(=O)/C(C)=C\C=C\[C@H](C)[C@H](O)[C@@H](C)[C@@H](O)[C@@H](C)[C@H](OC(C)=O)[C@@H]1C [rifampin]
Disc 5 μg
  resistance/sensitivity of culture A80509: sensitive

## NC[C@H]1O[C@H](O[C@H]2[C@H](O)[C@@H](O[C@H]3O[C@H](CO)[C@@H](O)[C@H](N)[C@H]3O)[C@H](N)C[C@@H]2N)[C@H](N)C[C@@H]1O [tobramycin]
Disc 10 μg
  resistance/sensitivity of culture A80509: sensitive

## CN[C@H](CC(C)C)C(=O)N[C@H]1C(=O)N[C@@H](CC(N)=O)C(=O)N[C@H]2C(=O)N[C@H]3C(=O)N[C@H](C(=O)N[C@H](C(=O)O)c4cc(O)cc(O)c4-c4cc3ccc4O)[C@H](O)c3ccc(c(Cl)c3)Oc3cc2cc(c3O[C@@H]2O[C@H](CO)[C@@H](O)[C@H](O)[C@H]2O[C@H]2C[C@](C)(N)[C@H](O)[C@H](C)O2)Oc2ccc(cc2Cl)[C@H]1O [vancomycin]
Disc 30 μg
  resistance/sensitivity of culture A80509: sensitive

## gentamicin
Disc 10 μg
  resistance/sensitivity of culture A80509: sensitive

## neomycin
Disc 30 μg
  resistance/sensitivity of culture A80509: sensitive

## CC(=O)OCC1=C(C(=O)O)N2C(=O)[C@@H](NC(=O)Cc3cccs3)[C@H]2SC1 [cephalothin]
Disc 30 μg
  resistance/sensitivity of culture A80509: resistant

## [H]/N=C(/N)N[C@H]1[C@H](O)[C@@H](O)[C@H](O[C@@H]2O[C@@H](C)[C@](O)(C=O)[C@H]2O[C@@H]2O[C@@H](CO)[C@H](O)[C@@H](O)[C@@H]2NC)[C@@H](N/C(N)=N\[H])[C@@H]1O [streptomycin]
Disc 10 μg
  resistance/sensitivity of culture A80509: sensitive

## CN(C)C1C(=O)C(C(N)=O)=C(O)C2(O)C(=O)C3=C(O)c4c(O)cccc4C(C)(O)C3CC12 (stereo not drawn) [tetracycline]
Disc 30 μg
  resistance/sensitivity of culture A80509: sensitive

## CC1(C)S[C@@H]2[C@H](NC(=O)Cc3ccccc3)C(=O)N2[C@H]1C(=O)O [penicillin G]
Disc 10 units
  resistance/sensitivity of culture A80509: resistant

Reference: patent publication US4885170A, “Antibiotic A80509” (Eli Lilly and Company, priority 1988, dated 1989)
